Results: patent publication US10690672B2, “Methods for breast cancer treatment” (GEORGE MASON UNIVERSITY, priority 2015, dated 2020)

How the values were obtained:
breast cancer [1] = assay: I-SPY 2 TRIAL: pathological complete response (pCR) to neratinib plus standard chemotherapy vs concurrent control
Description: Subjects providing samples (pre-treatment biopsies) for studies described herein were characterized based on measurement of estrogen/hormone receptor (HR) and HER2 (c-erbB2), and were described by HER2−/HR−. HER2+/HR+. HER2+/HR−, HER2−/HR+ phenotypes. Response to treatment was determined by the amount of tumor shrinkage and a lack of appreciable tumor evident at surgery. A response of tumor shrinkage and/or lack of tumor when examined (such as at surgery) is referred to herein as “complete pathological response” (pCR), and has recently been deemed by the US FDA as an appropriate clinical endpoint for therapeutic approval. Neratinib is a therapeutic agent with a mechanism of action that is as a tyrosine kinase inhibitor that binds to and inhibits c-erbB2 and EGFR protein activity and the respective linked downstream pathways. […] Methods described herein may comprise obtaining measurements of the amounts proteins from a subject sample using a protein array technology developed by the inventors, and is referred to herein as “reverse phase protein microarray” (RPPA). This microarray allows for quantitative measurement of the amount of proteins and/or phosphorylated proteins in the tumor or cancerous cells from pretreatment sample, for example from biopsy specimens of women with Stage II/III breast cancer.
This example tested the hypothesis that the response to the pan-ERBB inhibitor, neratinib, was predicted by pre-treatment HER2-EGFR signaling. […] All patients received at least standard chemotherapy (which was comprised of 12 weekly cycles of paclitaxel (a taxane) therapy followed by 4 cycles of doxorubicin/cyclophosphamide (AC) therapy). For HER2+ patients, neratinib was administered in place of trastuzumab, and all HER2+ control arm patients received chemotherapy plus trastuzumab. 18 HER family signaling proteins were evaluated as biomarkers of neratinib response using reverse phase protein microarray (RPMA) data from pre-treatment laser capture microdissection (LCM) purified tumor epithelium.
Eighteen (18) protein/phosphoproteins biomarkers relating to HER family signaling were evaluated: AKT S473, AKT T308, EGFR, EGFR Y1068, EGFR Y1148, EGFR Y1173, EGFR Y992, ERBB2, ERBB2 Y1248, ERBB3 total, ERBB3 Y1289, ERK1/2 T202/Y204, Heregulin, mTOR, mTOR S2448, PI3K p85 Y458/p55 Y199, PTEN S380, and SHC Y317. This study assessed association between biomarker and response in the neratinib and control arms alone (likelihood ratio test), and relative performance between arms (biomarker×treatment interaction) using a logistic model. Analysis was also performed adjusting for HR/HER2 status.

breast cancer [2] = assay: Bayesian analysis (MCMC simulation on I-SPY 2 data): probability of superiority to control and of Phase III success; type: in vivo, human
Source text: Bayesian analysis was completed using the MCMC simulation based on I-SPY 2 data with the following model: pCR˜HR+HER2+biomarker+treatment+treatment*HR+treatment*HER2+treatment*biomarker. No multiple comparison adjustments were applied. The Bayesian analytical engine developed by Don Berry (Yee et al J Clin Oncol. 2012 Dec. 20; 30(36):4584-6), is a mathematical approach that evaluates the clinical performance of a drug (in this case, neratinib) in both the treatment arm (in this case tumor shrinkage estimates by size changes observed by MRI), coupled with complete pathological response (pCR) as measured as the final response determinant, and the response of the predicate therapy in the control arm. This evaluation determined success of a given therapy for a Phase III trial, and in this case, it was determined that phosphorylation of EGFR at Y1173 was not only statistically significant at predicting or assessing response to neratinib in all patients regardless of hormone receptor levels and HER2 levels (HER2+, HER2− and HR+ and HR−), but when patients with high levels of phosphorylated EGFR (Y1173) were added to the HR−/HER2+ subgroup, the prevalence of ‘biomarker-positive’ patients increased by 50%, while increasing the predicted probability of Phase III success to 90%. Moreover, when EGFR Y1173 was used as a single marker, a statistically significant increase in Phase III success was determined for all patients compared to HER2+/HR− status as measured by immunohistochemical methods. (93% vs 87%).

## CCOc1cc2ncc(C#N)c(Nc3ccc(OCc4ccccn4)c(Cl)c3)c2cc1NC(=O)/C=C/CN(C)C [Neratinib]
Breast cancer [1]; EGFR Y1173 High patients added to the graduating HR−/HER2+ subset
  OR associated with treatment (pCR): 3.2
Breast cancer [1]; EGFR Y1173 High vs Low, neratinib arm relative to control arm
  odds ratio (OR) of pCR between EGFR Y1173 groups in the N relative to control arm: 10.1
Breast cancer [1]; HER2+/HR− subtype
  clinical response: statistically significant clinical response
Breast cancer [1]; HR−/HER2+ patients, EGFR Y1173 High, neratinib arm
  pCR rate: 12/18 (67%)
Breast cancer [1]; HR−/HER2+ patients, EGFR Y1173 Low, neratinib arm (neratinib in place of trastuzumab + paclitaxel then AC)
  pCR rate: 0/4 (0%)
Breast cancer [1]; HR−/HER2+ signature
  OR associated with treatment (pCR): 2.1
Breast cancer [1]; I-SPY 2 TRIAL, HR−/HER2+ signature
  trial outcome (graduation): graduated
Breast cancer [1]; Not HR−/HER2+ patients, EGFR Y1173 High, neratinib arm
  pCR rate: 24/57 (42%)
Breast cancer [1]; Not HR−/HER2+ patients, EGFR Y1173 Low, neratinib arm
  pCR rate: 3/27 (11%)
Breast cancer [1]; regardless of HER2/HR status
  pCR by subtype: pCR was observed in every subtype
Breast cancer [2]; EGFR Y1173 High
  Prob > CTRL (probability of Neratinib superiority to control): 0.99
  Prob Ph III Success: 0.93
Breast cancer [2]; EGFR Y1173 used as a single marker, all patients
  probability of Phase III success: 93%
Breast cancer [2]; HER2+/HR− status by immunohistochemical methods
  probability of Phase III success: 87%
Breast cancer [2]; HR−/HER2+
  Prob > CTRL (probability of Neratinib superiority to control): 0.97
  Prob Ph III Success: 0.87
Breast cancer [2]; HR−/HER2+ AND EGFR Y1173 High
  Prob > CTRL (probability of Neratinib superiority to control): 0.99
  Prob Ph III Success: 0.95
Breast cancer [2]; HR−/HER2+ OR EGFR Y1173 High
  Prob > CTRL (probability of Neratinib superiority to control): 0.99
  Prob Ph III Success: 0.9
Breast cancer [2]; patients with high phosphorylated EGFR (Y1173) added to the HR−/HER2+ subgroup
  predicted probability of Phase III success: 90%
